Reference: patent US6413974B1, “6,9,-disubstituted 2-[trans-(4-aminocyclohexyl) amino] purines” (Aventis Pharmaceuticals Inc., priority 1998, dated 2002)
Where “and” joins values, the source holds several entries; their conditions need not be identical. Equal values may be shown once. Where a name gives a salt, the structure may show the parent alone. Read-outs that look alike come from different tables or passages of the source.

What was measured:
[1] = molecular target: T1, cdk2/cyclin E (Homo sapiens, UniProt P24941); assay: Cyclin-Dependent Kinase 2 Assay (cdk-2 inhibition); type: biochemical; details: GST-Rb substrate, 30 min at 30° C.
T1 construct: made in house; host or cells: insect cells (baculovirus co-infection)
Summary of the method: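 GST-Rb bound to glutathione-Sepharose beads (0.5 μg/well) as substrate in 50 mM HEPES pH 7.5, 10 mM MgCl2, 1 mM EGTA. Recombinant cdk2/cyclin E at 0.1 μg per 100 μl, 30 min at 30 °C. Reaction stopped by filtration, TNEN washes, scintillation counting.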

[2] = molecular target: T2, cdk4/cyclin D1 (Homo sapiens, UniProt P11802); assay: Cyclin-dependent kinase 4 Assay; type: biochemical; details: cdk4/cyclin D1, GST-Rb substrate, 10 μM ATP, 30 min at 37° C.; read-out: CDK4 Inhibition IC50
T2 construct: made in house; host or cells: Sf9 insect cells (Bac-to-Bac baculovirus, pFastBac)
T2 sequence (P11802 whole entry): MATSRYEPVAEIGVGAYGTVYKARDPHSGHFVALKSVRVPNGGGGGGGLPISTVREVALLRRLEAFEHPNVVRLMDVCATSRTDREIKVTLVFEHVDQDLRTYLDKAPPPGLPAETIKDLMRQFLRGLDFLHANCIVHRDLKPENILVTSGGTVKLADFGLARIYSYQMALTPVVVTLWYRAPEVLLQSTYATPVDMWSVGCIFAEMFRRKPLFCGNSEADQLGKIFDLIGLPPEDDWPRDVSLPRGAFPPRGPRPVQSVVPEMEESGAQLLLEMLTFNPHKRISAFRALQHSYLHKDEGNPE
T2 sequence (P24385 whole entry partner): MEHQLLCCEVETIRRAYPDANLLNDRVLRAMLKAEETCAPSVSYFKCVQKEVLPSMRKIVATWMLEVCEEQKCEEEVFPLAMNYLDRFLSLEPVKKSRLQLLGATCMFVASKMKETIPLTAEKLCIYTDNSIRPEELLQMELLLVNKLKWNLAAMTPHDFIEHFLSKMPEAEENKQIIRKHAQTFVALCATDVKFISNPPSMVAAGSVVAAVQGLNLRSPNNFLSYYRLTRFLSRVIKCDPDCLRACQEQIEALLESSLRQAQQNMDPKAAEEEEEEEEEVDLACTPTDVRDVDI
Summary of the method: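 Insect-cell lysate of coexpressed human cdk4/cyclin D1 (0.1 μg) phosphorylated bead-bound GST-Rb (0.5 μg) in 50 mM HEPES pH 7.5, 10 mM MgCl2, 1 mM EGTA for 30 min at 37 °C. Filters were washed with TNEN and scintillation-counted; IC50 values derived.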

[3] = test system: MCF-7; assay: In vitro tumor cell proliferation, MCF-7; type: cell-based, human; details: read-out: In vitro Tumor Cell Proliferation (IC50, μM) Breast MCF-7
Description: (§1) The proliferation of tumor cells was measured using a sulforhodamine B assay as described in Skehan, P., et al., J. Natl. Cancer Inst. […] Tumor cells were harvested with trypsin-EDTA, cells that excluded trypan blue were counted, added to 96-well plates and incubated overnight at 37° C. Drug was added to the wells following dilution in culture medium. Three days later, the medium was removed and replenished with medium containing fresh drug and incubated an additional 4 days. The cells were then fixed with 0.1 ml 10% trichloroacetic acid for 60 min at 4° C. The plates were rinsed five times with tap water, air-dried and stained for 30 min with 0.4% sulforhodamine B in 1% acetic acid and air-dried.
(§2) Alternatively, the CyQUANT cell proliferation assay was used to quantify tumor cell proliferation. Tumor cells were harvested with trypsin-EDTA, cells that excluded trypan blue were counted, added to 96-well plates and incubated overnight at 37° C. Drug was added to the wells following dilution in culture medium. Three days later the medium was removed and the plates frozen at −80° C. for at least 30 minutes.
MCF7 is a human breast adenocarcinoma, hormone-dependent (HTB 22);

[4] = test system: MDA-MB-231; assay: In vitro tumor cell proliferation, MDA-MB-231; type: cell-based, human; details: read-out: In vitro Tumor Cell Proliferation (IC50, μM) Breast MDA-MB-231
Summary of the method: (§3)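 Viable (trypan blue-excluding) cells plated and left overnight at 37° C, then exposed to drug for 3 days, refed with fresh drug-containing medium for 4 more days. TCA-fixed cells stained with 0.4% sulforhodamine B; alternatively, CyQUANT read after 3 days of drug and freezing at −80° C.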

[5] = test system: HT-29; assay: In vitro tumor cell proliferation, HT-29; type: cell-based, human; details: read-out: In vitro Tumor Cell Proliferation (IC50, μM) Colon HT-29 (converted)
Summary of the method: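 HT-29 human colon adenocarcinoma cells plated overnight at 37° C., then exposed to drug for 3 days, medium with fresh drug replaced for a further 4 days. Cells fixed with 10% TCA and stained with 0.4% sulforhodamine B; alternatively, CyQUANT read after 3 days of drug exposure.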

[6] = test system: HCT-15; assay: In vitro tumor cell proliferation, HCT-15; type: cell-based, human; details: read-out: In vitro Tumor Cell Proliferation (IC50, μM) Colon HCT-15
Description: as §1, §2

[7] = test system: A549; assay: In vitro tumor cell proliferation, A549; type: cell-based, human; details: read-out: In vitro Tumor Cell Proliferation (IC50, μM) Lung A549
Summary of the method: as §3

[8] = test system: DMS-114; assay: In vitro tumor cell proliferation, DMS-114; type: cell-based, human; details: read-out: In vitro Tumor Cell Proliferation (IC50, μM) Lung DMS-114
Summary of the method: as §3

[9] = test system: PC-3; assay: In vitro tumor cell proliferation, PC-3; type: cell-based, human; details: read-out: In vitro Tumor Cell Proliferation (IC50, μM) Prostate PC-3
Summary of the method: as §3

[10] = test system: DU 145; assay: In vitro tumor cell proliferation, DU 145; type: cell-based, human
Summary of the method: as §3

[11] = Homo sapiens, MCF7, values without *
[12] = values without *, dihydrochloride
[13] = Homo sapiens, HT-29, values without *
[14] = Homo sapiens, HCT-15, values without *
[15] = Homo sapiens, A549, values without *
[16] = Homo sapiens, DMS-114, values without *
[17] = Homo sapiens, PC-3, values without *
[18] = Homo sapiens, DU-145, values without *, read-out: In vitro Tumor Cell Proliferation (IC50, μM) Prostate DUI45
[19] = values without *, dihydrochloride, read-out: In vitro Tumor Cell Proliferation (IC50, μM) Prostate DUI45
[20] = Homo sapiens, MDA-MB-231, values without *

IC50 [1]	IC50 [2]	IC50 [3, 11] [µM]	IC50 [3, 12] [µM]	IC50 [5, 13] [µM]	IC50 [5, 12]	IC50 [6, 14] [µM]	IC50 [6, 12] [µM]	IC50 [7, 15] [µM]	IC50 [8, 16] [µM]	IC50 [8, 12] [µM]	IC50 [9, 17] [µM]	IC50 [9, 12]	IC50 [10, 18] [µM]	IC50 [10, 19]	IC50 [4, 20] [µM]	IC50 [4, 12] [µM]	IC50 [7, 12] [µM]	SMILES	other results
130 nM	570 nM and 900 nM	0.34	0.47	0.16	0.17 µM and 0.28 µM	1.4	1	0.15	0.14	0.13	0.13	0.23 µM	0.39	0.38 µM and 0.51 µM	–	–	–	N[C@H]1CC[C@H](Nc2nc(NCCCc3ccccc3)c3ncn(C4CCCC4)c3n2)CC1 [Example 24, 2-[Trans-(4-aminocyclohexyl)amino]-6-[3-(phenyl)propylamino]-9-cyclopentylpurine dihydrochloride]	IC50 ([3]; Homo sapiens, MCF7, values marked * (mark not explained)): 0.42 µM; IC50 ([4]; Homo sapiens, MDA-MB-231, values marked * (mark not explained)): 0.24 µM; IC50 ([5]; Homo sapiens, HT-29, values marked * (mark not explained)): 0.19 µM; IC50 ([6]; Homo sapiens, HCT-15, values marked * (mark not explained)): 0.99 µM; IC50 ([7]; Homo sapiens, A549, values marked * (mark not explained)): 0.11 µM; IC50 ([8]; Homo sapiens, DMS-114, values marked * (mark not explained)): 0.07 µM; IC50 ([9]; Homo sapiens, PC-3, values marked * (mark not explained)): 0.2 µM; IC50 ([10]; Homo sapiens, DU-145, values marked * (mark not explained), read-out: In vitro Tumor Cell Proliferation (IC50, μM) Prostate DUI45): 0.54 µM
160 nM	250 nM	1.2	1.6	2.2	2.8 µM	3.4	3.2	1.1	0.92	1.2	0.89	0.92 µM	1.2	1.4 µM	2.1	2.5	1	N[C@H]1CC[C@H](Nc2nc(NCCc3ccccc3)c3ncn(C4CCCC4)c3n2)CC1 [Example 43, 2-[Trans-(4-aminocyclohexyl)amino-6-[2-(phenyl)ethylamino]-9-cyclopentylpurinedihydrochloride]	–
140 nM	190 nM and 300 nM	1.1	1.8	1.6	–	1.9	–	1.7	1.5	–	0.97	0.79 µM	0.97	1.8 µM	1.2	1.7	0.98	N[C@H]1CC[C@H](Nc2nc(NCc3ccc(Cl)c(Cl)c3)c3ncn(C4CCCC4)c3n2)CC1 [Example 10, 2-[Trans-(4-aminocyclohexyl)amino]-6-[(3,4-dichlorobenzyl)amino]-9-cyclopentylpurine dihydrochloride]	–
33 nM and 17 nM	390 nM and 660 nM	0.59	0.81	0.92	1.5 µM	3.9	3.6	0.6	0.49	0.73	0.37	–	0.54	0.6 µM	0.95	1.2	0.63	CCCCNc1nc(N[C@H]2CC[C@H](N)CC2)nc2c1ncn2C1CCCC1 [Example 3, 2-[Trans-(4-aminocylcohexyl)amino]-6-(butylamino)-9-cyclopentylpurine dihydrochloride]	–
20 nM and 17 nM and 21 nM	450 nM	3.5	4.9	6.2	9.7 µM	–	16	6	5.4	7.4	2	3 µM	5.1	6 µM	5.2	7	6.7	N[C@H]1CC[C@H](Nc2nc(NCCCn3ccnc3)c3ncn(C4CCCC4)c3n2)CC1 [Example 46, 2-[Trans-(4-aminocyclohexyl)amino]-6-[3-(1-imidazolyl)propylamino]-9-cyclopentylpurine dihydrochloride]	–
126 nM	600 nM	2.5	3.1	5.3	7.9 µM	21	22	2.5	2.9	3.7	1.9	2.3 µM	3.3	4 µM	6.4	8.6	3.1	N[C@H]1CC[C@H](Nc2nc(NCC3CCCCO3)c3ncn(C4CCCC4)c3n2)CC1 (relative stereo) [Example 30, 2-[Trans-(4-aminocyclohexyl)amino]-6-[(2-tetrahydropyranyl)methylamino]-9-cyclopentylpurine dihydrochloride]	–
120 nM	1100 nM and 600 nM	1.1	1.3	1.5	1.9 µM	3.1	3.3	0.8	0.88	0.91	0.68	–	0.89	1.1 µM	1.4	2	0.94	CC(C)CCNc1nc(N[C@H]2CC[C@H](N)CC2)nc2c1ncn2C1CCCC1 [Example 36, 2-[Trans-(4-aminocyclohexyl)amino]-6-[(3-methylbutyl)amino]-9-cyclopentylpurine dihydrochloride]	–

SMILES	IC50 [1]	IC50 [2]	IC50 [3, 11] [µM]	IC50 [3, 12] [µM]	IC50 [5, 13] [µM]	IC50 [5, 12]	IC50 [6, 14] [µM]	IC50 [6, 12] [µM]	IC50 [7, 15] [µM]	IC50 [8, 16] [µM]	IC50 [8, 12] [µM]	IC50 [9, 17] [µM]	IC50 [9, 12]	IC50 [10, 18] [µM]	IC50 [10, 19]	IC50 [4, 20] [µM]	IC50 [4, 12] [µM]	IC50 [7, 12] [µM]	other results
N[C@H]1CC[C@H](Nc2nc(NCc3cccc(I)c3)c3ncn(C4CCCC4)c3n2)CC1 [Example 1, 2-[Trans-(4-aminocyclohexyl)amino]-6-(3-iodobenzylamino)-9-cyclopentylpurine dihydrochloride]	50 nM and 70 nM and 85 nM and 37 nM and 55 nM and 65 nM	2000 nM	0.7	0.6	0.9	1 µM and 1.6 µM	2.2	1.9	1.1	1.2	0.9	1.9	1.1 µM and 1.2 µM	–	–	1.1	0.8	1	IC50 ([10]; Homo sapiens, DU-145, read-out: In vitro Tumor Cell Proliferation (IC50, μM) Prostate DUI45, values without *): 2 µM; IC50 ([10]; read-out: In vitro Tumor Cell Proliferation (IC50, μM) Prostate DUI45, values without *, dihydrochloride): 1.6 µM and 1.2 µM
